Assay results reported in PMC9911797, “Novel TLR7/8 agonists promote activation of HIV-1 latent reservoirs and human T and NK cells” (Frontiers in Microbiology, 2023).
pEC50: −log10 of the molar value.

Assays:
hTLR7 = target: T1, hTLR7 (Homo sapiens, UniProt Q9NYK1); assay: HEK-Blue hTLR7 SEAP reporter assay; assay type: cell-based; conditions: HEK-Blue hTLR7 cells, SEAP in supernatant
T1 construct: host or cells: HEK-Blue hTLR7 (HEK293-derived)
T1 sequence (Q9NYK1 27-1049): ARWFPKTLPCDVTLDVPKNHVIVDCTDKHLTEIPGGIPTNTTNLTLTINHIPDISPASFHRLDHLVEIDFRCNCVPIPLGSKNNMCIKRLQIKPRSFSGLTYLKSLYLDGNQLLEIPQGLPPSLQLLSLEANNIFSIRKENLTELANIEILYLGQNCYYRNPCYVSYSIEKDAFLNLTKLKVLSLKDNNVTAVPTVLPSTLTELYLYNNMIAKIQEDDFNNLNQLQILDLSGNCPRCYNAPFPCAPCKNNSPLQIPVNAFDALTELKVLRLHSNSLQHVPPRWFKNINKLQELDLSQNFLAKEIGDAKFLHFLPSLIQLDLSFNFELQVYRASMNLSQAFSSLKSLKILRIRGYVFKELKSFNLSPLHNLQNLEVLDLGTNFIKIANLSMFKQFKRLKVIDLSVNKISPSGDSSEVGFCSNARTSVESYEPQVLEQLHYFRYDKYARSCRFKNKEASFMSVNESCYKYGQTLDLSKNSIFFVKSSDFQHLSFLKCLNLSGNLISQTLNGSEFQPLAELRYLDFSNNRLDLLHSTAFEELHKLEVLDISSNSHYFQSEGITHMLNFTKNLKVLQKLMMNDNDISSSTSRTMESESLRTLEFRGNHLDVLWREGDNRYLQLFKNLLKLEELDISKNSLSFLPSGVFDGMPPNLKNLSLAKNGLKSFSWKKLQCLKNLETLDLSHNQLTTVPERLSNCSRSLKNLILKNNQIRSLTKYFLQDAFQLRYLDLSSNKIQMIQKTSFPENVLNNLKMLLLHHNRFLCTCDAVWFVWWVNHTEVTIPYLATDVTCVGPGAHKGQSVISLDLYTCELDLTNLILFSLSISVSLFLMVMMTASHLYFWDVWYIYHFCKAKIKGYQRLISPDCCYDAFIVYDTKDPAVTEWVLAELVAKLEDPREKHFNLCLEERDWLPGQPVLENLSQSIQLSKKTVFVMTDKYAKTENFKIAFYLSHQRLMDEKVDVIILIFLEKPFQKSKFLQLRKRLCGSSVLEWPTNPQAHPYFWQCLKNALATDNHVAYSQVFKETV
Method: (§1) Starting with the lead compound, 76 pyrido [3,2-d] pyrimidine derivatives were synthesized and optimized through structural modification from the deep hydrophobic region to the solvent-exposed region. Seventy-six compounds were evaluated for their in vitro activity using HEK-Blue hTLR7 or hTLR8 reporter cells, stably expressing the human TLR7 or TLR8 and an NF-κB/AP1-inducible SEAP (secreted embryonic alkaline phosphatase reporter gene).
(§2) Add 20 μl various concentrations of TLR agonists (10 dilutions) and in a 96-well plate. Then HEK-Blue hTLR7 and hTLR8 cells were suspended to 4 × 10^5 cells/ml in HEK-Blue Detection (InvivoGen) medium and added 180 μl per well. The plates were incubated at 37°C in 5% CO2 for 12 ~ 16 h. Stimulation with a hTLR7or hTLR8 ligand activates NF-κB to induce the production of secreted embryonic alkaline phosphatase (SEAP) in the culture supernatant. SEAP could be measured at OD630nm on an ELISA plate reader.

hTLR8 = target: T2, hTLR8 (Homo sapiens, UniProt Q9NR97); assay: HEK-Blue hTLR8 SEAP reporter assay; assay type: cell-based; conditions: HEK-Blue hTLR8 cells, SEAP in supernatant
T2 construct: host or cells: HEK-Blue hTLR8 (HEK293-derived)
T2 sequence (Q9NR97 27-1041): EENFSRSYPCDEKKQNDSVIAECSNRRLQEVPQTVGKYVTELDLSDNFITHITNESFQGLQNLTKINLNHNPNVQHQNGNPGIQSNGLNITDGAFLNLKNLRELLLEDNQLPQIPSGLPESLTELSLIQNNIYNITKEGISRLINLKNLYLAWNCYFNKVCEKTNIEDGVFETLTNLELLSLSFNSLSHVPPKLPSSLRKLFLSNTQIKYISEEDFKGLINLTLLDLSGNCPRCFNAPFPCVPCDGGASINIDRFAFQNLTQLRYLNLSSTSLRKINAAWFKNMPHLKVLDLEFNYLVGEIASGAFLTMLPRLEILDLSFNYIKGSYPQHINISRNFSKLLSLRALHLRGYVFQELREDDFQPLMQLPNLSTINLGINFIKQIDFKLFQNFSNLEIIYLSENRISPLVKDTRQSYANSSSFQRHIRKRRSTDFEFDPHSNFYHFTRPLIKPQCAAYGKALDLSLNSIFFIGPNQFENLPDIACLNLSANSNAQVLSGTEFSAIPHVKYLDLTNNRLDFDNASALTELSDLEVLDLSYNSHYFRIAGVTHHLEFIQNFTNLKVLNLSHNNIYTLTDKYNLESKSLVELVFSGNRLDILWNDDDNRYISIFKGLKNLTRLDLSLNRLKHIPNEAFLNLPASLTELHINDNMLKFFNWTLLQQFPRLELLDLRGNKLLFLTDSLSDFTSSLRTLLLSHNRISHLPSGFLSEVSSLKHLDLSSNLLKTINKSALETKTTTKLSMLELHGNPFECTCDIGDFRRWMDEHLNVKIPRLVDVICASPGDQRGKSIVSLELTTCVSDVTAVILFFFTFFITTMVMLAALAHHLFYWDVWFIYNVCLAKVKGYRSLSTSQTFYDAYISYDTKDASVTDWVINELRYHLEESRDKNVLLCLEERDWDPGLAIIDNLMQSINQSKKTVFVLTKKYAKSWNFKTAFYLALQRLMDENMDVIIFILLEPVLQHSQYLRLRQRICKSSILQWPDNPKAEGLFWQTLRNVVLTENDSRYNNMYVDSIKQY
Method: as §1, §2

[1] = tested on: PBMCs from HIV-1 well-suppressed patients; assay: Latent HIV-1 activation in PBMCs of well-suppressed patients (HIV-1 RNA copies in supernatant, RT-qPCR); assay type: cell-based, human; conditions: for HIV-1 RNA copies in the supernatant and TNF-α concentration: PBMCs from seven well-suppressed patients, IgG1-control antibody vs anti-TNF-α; for HIV-1 RNA copies in the supernatant: patient PBMCs (n = 6), 96 h at 37°C
Source text: To study the potential of novel TLR7/8 in activating latent HIV-1 reservoir, TLR7/8 dual agonists D018 and C142 and TLR8-specific agonist B-130a were mixed with PBMCs from six well-suppressed patients whose viral load in the plasma was less than 50 copies/ml, and CD4 counts were more than […] for more than 6 years.
TLR7/8 agonists activated PBMCs from seven well-suppressed patients with the addition of anti-TNF-α monoclonal antibody or IgG1-control monoclonal antibody, respectively. D018, B-130a, and the positive control PMA + ION increased the levels of HIV-1 RNA copies in the supernatant and the concentration of TNF-α concomitantly.
To measure the HIV viral load, viral RNA from supernatants was extracted by MagaBio Plus Viral DNA / RNA Purification Kit (BIOER). The reverse-transcription and analysis of RNA copies were performed using the HIV-1 Real-time PCR detection kit (BIOER).

PBMCs = assay: Inflammatory cytokine release from PBMCs (Legend-plex); assay type: cell-based, human; conditions: PBMC culture supernatant 48 h after stimulation
Method: Then, a total of 13 human inflammatory cytokines and chemokines (IL-1β, IFN-α2, IFN-γ, TNF-α, CCL2, IL-6, CXCL8, IL-10, IL-12p70, IL-17A, IL-18, IL-23, and IL-33) were measured in the culture supernatant 48 h after stimulation and compared with two healthy donors. Only 8 out of 13 became detectable and largely fell into the proinflammatory cytokines (IL-1β, IL-6, IL-18, IL-23, and TNF-α), Th1-and Th2-type cytokines (IL-10 and IFN-γ), and type I (IFN-α2) and type II (IFN-γ) interferons (Figures 2B–I).
The supernatants from PBMCs culture were collected and stored at-20°C until analysis. For the Multi-cytokines assay, the Legend-plex Human Inflammation Panel 1 kit (Biolegend) was used according to the manual. Thirteen human inflammatory cytokines/chemokines were measured, including IL-1β, IFN-α2, IFN-γ, TNF-α, MCP-1 (CCL2), IL-6, IL-8 (CXCL8), IL-10, IL-12p70, IL-17A, IL-18, IL-23, and IL-33.

NF-κB p65 in U1 cells = assay: Nuclear phospho-p65-S536 in U1 cells (western blot); conditions: 1 μM, 30 min, 37°C
[2] = tested on: J-LAT cells co-cultured with MDDCs; assay: J-LAT and MDDC co-culture assay (GFP+ cells and TNF-α); conditions: 1 μM, 48 h
[3] = tested on: U1 monocytic cell line (latent HIV-1); assay: HIV-1 p24 production in latently infected U1 cells (ELISA); conditions: 1 μM, TLR8- or MyD88-shRNA U1 vs sham-knockdown
HIV-1 = tested on: HIV-1; set-up: method as in SenGupta et al., 2021; conditions: patients treated with oral GS9620, phase 1b, placebo 4.1 weeks; ref SenGupta et al., 2021; cited from earlier work
[4] = tested on: J-LAT CD4 T cell line (latent HIV-1); assay: J-LAT activation by supernatant of agonist-stimulated healthy donor PBMCs (GFP+ cells, FACS); conditions: 48 h, highest concentration 16 μM
[5] = tested on: J-LAT CD4 T cell line (latent HIV-1); assay: Direct stimulation of J-LAT cells (GFP-positive cells)

Compound | pEC50 (hTLR7) | pEC50 (hTLR8) | further results
COCCNc1nc(N)nc2ccc(Cc3ccc(CN(C)C)cc3)nc12 [199-1] | 6.93 | 8.01 | 
CCCCCc1cc(Cc2ccc(CN(C)C)cc2)c(C)nc1N [B-130a] | < 5.00 | 7.26 | HIV-1 RNA copies in the supernatant and TNF-α concentration [1]: increased; HIV-1 RNA copies in the supernatant [1]: activated detectable levels of HIV-1 RNA copies; release of inflammatory cytokines (PBMCs): comparable potency but were invariably higher than TLR7-specific GS9620; nuclear phos-p65-S536 (NF-κB p65 in U1 cells): significant increase; GFP+ J-LAT cells and soluble TNF-α in MDDC co-culture [2]: marked increase; p24 production after TLR8 or MyD88 knockdown [3]: essentially abolished the p24 production
CCCCCc1cc(Cc2ccc(CN3CCCC3)cc2)c(C)nc1N [B-130b] | < 5.00 | 7.17 | 
CCCCNc1nc(N)nc2ccc(Cc3ccc(CN(C)C)cc3OC)nc12 [C142] | 7.70 | 7.36 | HIV-1 RNA copies in the supernatant [1]: activated detectable levels of HIV-1 RNA copies; release of inflammatory cytokines (PBMCs): either equivalent (IL-6, IL-10, IL-23, and IFN-γ) or higher (IL-1β, IL-18, and TNF-α) than the commercially available R848
CCCCOc1nc(N)c2c(n1)N(Cc1cccc(CN3CCCC3)c1)CC(=O)N2 [GS9620, reference compound] | 6.45 | < 5.00 | HIV-1 RNA copies in the supernatant and TNF-α concentration [1]: low detectable levels; viral rebound time (HIV-1): 5.1 weeks; GFP+ J-LAT cells and soluble TNF-α in MDDC co-culture [2]: no detectable levels; GFP-positive J-LAT cells, PBMC supernatant [4]: did not show any detectable effect
IFN-α |  |  | GFP-positive J-LAT cells, direct stimulation [5]: failed to activate J-LAT cells
TNF-α |  |  | GFP-positive J-LAT cells, direct stimulation [5]: could activate GFP expression

Further lines, with some results ahead:

pEC50 (hTLR7) | pEC50 (hTLR8) | Compound | further results
7.00 | 7.76 | CCCCNc1nc(N)nc2ccc(Cc3ccc(CN4CCCC4)cc3)nc12 [C008] | 
5.78 | 6.75 | CCCCNc1nc(N)nc2ccc(C(C)c3ccc(CN(C)C)cc3)nc12 (stereo not shown) [C163] | 
5.59 | 5.70 | CCCCNc1nc(N)nc2ccc(Cl)nc12 [LB06] | 
< 5.00 | 6.82 | CCCN(CCC)C(=O)C1=Cc2ccc(-c3ccc(C(=O)N4CCCC4)cc3)cc2N=C(N)C1 [VTX-2337, reference compound] | release of inflammatory cytokines (PBMCs): comparable potency but were invariably higher than TLR7-specific GS9620
6.93 | 7.29 | CCCCNc1nc(N)nc2ccc(Cc3ccc(CN4CCOCC4)cc3)nc12 [WA86] | 
< 5.00 | 6.71 | CCCCCc1cc2nc(Cc3ccc(CN(C)C)cc3)ccc2nc1N [WA175] | 
